Data on 21 molecules can be found in US20090036448A1, “PYRIMIDINE DERIVATIVES AND METHODS OF TREATMENT RELATED TO THE USE THEREOF” (TAISHO PHARMECUTICAL CO., LTD., priority 2004, published 2009).

Chain of MCH receptor (Q99705 whole entry): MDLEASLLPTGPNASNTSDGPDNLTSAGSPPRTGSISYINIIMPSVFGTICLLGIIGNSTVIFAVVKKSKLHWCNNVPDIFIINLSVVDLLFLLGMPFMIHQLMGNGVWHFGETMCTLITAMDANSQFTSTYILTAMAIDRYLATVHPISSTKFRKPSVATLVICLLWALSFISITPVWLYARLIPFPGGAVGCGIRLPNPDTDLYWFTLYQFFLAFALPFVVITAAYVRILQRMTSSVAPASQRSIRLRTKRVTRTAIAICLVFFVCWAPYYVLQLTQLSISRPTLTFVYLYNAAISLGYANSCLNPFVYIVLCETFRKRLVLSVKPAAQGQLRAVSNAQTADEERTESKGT

This test concerns the target MCH receptor (Homo sapiens, UniProt Q99705). The experiment in a line: Receptor binding assay with Radiolabelled MCH Ligand. Set-up: expressed in transfected cells; host or cells: 293 cells (human kidney, ATCC), transient transfection; crude membranes. Conditions: class by percent of control at 10^-7 M or IC50. An outline of the steps: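 This was a filtration radioligand displacement assay: compounds, first tested at 1 and 0.1 μM and then over a range, inhibited binding of a labelled MCH ligand to transfected 293-cell membranes at room temperature for 60–120 min. Specific binding excluded a cold-MCH nonspecific signal. Ki was derived from IC50 via Cheng-Prusoff, using an independently measured KD.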
Regarding `CSc1sc(C(=O)N[C@H]2CC[C@@H](Nc3cc(N(C)C)nc(C)n3)CC2)c(Cl)c1S(=O)(=O)C(C)C` [compound 345], the class is on record as 3 (Class 3: The value of percent of control at 10^−7 M was more than 60% or the value of IC50 was more than 200 nM.). In the case of `CCCCCCCCCc1ccc(CN[C@H]2CC[C@@H](Nc3cc(N(C)C)nc(C)n3)CC2)cc1` [compound 399], the class is listed as 3 (Class 3: The value of percent of control at 10^−7 M was more than 60% or the value of IC50 was more than 200 nM.). As for `Cc1nc(N[C@H]2CC[C@@H](NS(=O)(=O)c3ccc(-c4ccccc4)cc3)CC2)cc(N(C)C)n1` [compound 489], the figure is 3 (Class 3: The value of percent of control at 10^−7 M was more than 60% or the value of IC50 was more than 200 nM.). For `COCCOC(=O)N[C@H]1CC[C@@H](Nc2cc(N(C)C)nc(C)n2)CC1` [compound 457], the class was 3 (Class 3: The value of percent of control at 10^−7 M was more than 60% or the value of IC50 was more than 200 nM.). As for `Cc1nc(N[C@H]2CC[C@@H](NC(=O)c3cnc4ccccc4n3)CC2)cc(N(C)C)n1` [compound 240], the figure is 3 (Class 3: The value of percent of control at 10^−7 M was more than 60% or the value of IC50 was more than 200 nM.); as for `CCOc1ccccc1NC(=S)N[C@H]1CC[C@@H](Nc2cc(N(C)C)nc(C)n2)CC1` [compound 446], 3 (Class 3: The value of percent of control at 10^−7 M was more than 60% or the value of IC50 was more than 200 nM.). With `Cc1ccc(CN[C@H]2CC[C@@H](Nc3cc(N(C)C)nc(C)n3)CC2)cc1` [compound 387], the class was 3 (Class 3: The value of percent of control at 10^−7 M was more than 60% or the value of IC50 was more than 200 nM.).

As to `Cc1nc(N[C@H]2CC[C@@H](NC(=O)Cc3csc4ccccc34)CC2)cc(N(C)C)n1` [compound 338], the class was 3 (Class 3: The value of percent of control at 10^−7 M was more than 60% or the value of IC50 was more than 200 nM.). As for `Cc1nc(N[C@H]2CC[C@@H](NS(=O)(=O)c3ccc(Oc4ccccc4)cc3)CC2)cc(N(C)C)n1` [compound 496], the figure is 3 (Class 3: The value of percent of control at 10^−7 M was more than 60% or the value of IC50 was more than 200 nM.). As for `Cc1nc(N[C@H]2CC[C@@H](NC(=O)C(C)(C)Oc3ccc(Cl)cc3)CC2)cc(N(C)C)n1` [compound 268], the figure is 3 (Class 3: The value of percent of control at 10^−7 M was more than 60% or the value of IC50 was more than 200 nM.); as for `CCOC(=O)N[C@H]1CC[C@@H](Nc2cc(N(C)C)nc(C)n2)CC1` [compound 459], 3 (Class 3: The value of percent of control at 10^−7 M was more than 60% or the value of IC50 was more than 200 nM.); as for `Cc1nc(N[C@H]2CC[C@@H](NC(=O)NCc3ccccc3Cl)CC2)cc(N(C)C)n1` [compound 412], 3 (Class 3: The value of percent of control at 10^−7 M was more than 60% or the value of IC50 was more than 200 nM.). As for `Cc1nc(N[C@H]2CC[C@@H](NC(=O)NC(c3ccccc3)c3ccccc3)CC2)cc(N(C)C)n1` [compound 414], the figure is 3 (Class 3: The value of percent of control at 10^−7 M was more than 60% or the value of IC50 was more than 200 nM.); as for `Cc1nc(N[C@H]2CC[C@@H](NCc3nn(-c4ccccc4)nc3C)CC2)cc(N(C)C)n1` [compound 376], 3 (Class 3: The value of percent of control at 10^−7 M was more than 60% or the value of IC50 was more than 200 nM.). Take `Cc1nc(N[C@H]2CC[C@@H](NCc3ccccc3I)CC2)cc(N(C)C)n1` [compound 375]: the class is recorded as 3 (Class 3: The value of percent of control at 10^−7 M was more than 60% or the value of IC50 was more than 200 nM.).

Turning to `Cc1nc(N[C@H]2CC[C@@H](NC(=O)c3ccc(F)cc3)CC2)cc(N(C)C)n1` [compound 221, N-(cis-4-{[6-(dimethylamino)-2-methylpyrimidin-4-yl]amino}cyclohexyl)-4-fluorobenzamide], the class is recorded as 3 (Class 3: The value of percent of control at 10^−7 M was more than 60% or the value of IC50 was more than 200 nM.). As for `Cc1nc(N[C@H]2CC[C@@H](NCCC3CCCC3)CC2)cc(N(C)C)n1` [compound 402], the figure is 3 (Class 3: The value of percent of control at 10^−7 M was more than 60% or the value of IC50 was more than 200 nM.); as for `Cc1nc(N[C@H]2CC[C@@H](NC(=O)c3cnn(-c4ccccc4)c3C(F)(F)F)CC2)cc(N(C)C)n1` [compound 238], 3 (Class 3: The value of percent of control at 10^−7 M was more than 60% or the value of IC50 was more than 200 nM.). In the case of `Cc1nc(N[C@H]2CC[C@@H](NS(=O)(=O)c3c(C)noc3C)CC2)cc(N(C)C)n1` [compound 512] it was 3 (Class 3: The value of percent of control at 10^−7 M was more than 60% or the value of IC50 was more than 200 nM.). As for `Cc1nc(N[C@H]2CC[C@@H](NC(=S)Nc3c(Br)cc(Br)cc3Br)CC2)cc(N(C)C)n1` [compound 447, N-(cis-4-{[6-(dimethylamino)-2-methylpyrimidin-4-yl]amino}cyclohexyl)-N′-(2,4,6-tribromophenyl)thiourea], the figure is 1 (Class 1: The value of percent of control at 10^−7 M was less than 40% or the value of IC50 was less than 50 nM.); as for `Cc1nc(N[C@H]2CC[C@@H](NCc3ccc(Cl)cc3)CC2)cc(N(C)C)n1` [compound 360], 3 (Class 3: The value of percent of control at 10^−7 M was more than 60% or the value of IC50 was more than 200 nM.).
